In patent publication US20070049593A1 (priority 2004, published 2007) one finds IC50 data, which are given here for 27 compounds.

The structures appear in SMILES notation. Where a name gives a salt, the structure may show the parent alone. Read-outs that look alike come from different tables or passages of the source.

The experiment has as its target T1, HCV polymerase (Hepatitis C virus genotype 1b, UniProt P26663).
T1 construct: a region encoding NS5B (J Virol 1991 March, 65(3), 1105-13, 544 amino acids after deletion of 47 amino acids on the C-terminal); 6xHis (C); made in house; host or cells: Escherichia coli
The experiment in a line: biochemical. Details: species or system HCV BK strain. In outline: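 Recombinant HCV BK-strain NS5B (C-terminal 47 aa deleted, His6-tagged, E. coli), 0.5 μg/ml, run with 5 μg/ml in vitro-transcribed RNA template (polyU/3′X), ATP/GTP/CTP 50 μM, UTP 2 μM plus [3H]UTP, pH 7.5, 25° C, 90 min. TCA-precipitated RNA counted by scintillation; IC50 from activity with vs without compound.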

The term IC50 denotes the concentration that gives 50% inhibition.

T1 sequence (P26663 2420-2963): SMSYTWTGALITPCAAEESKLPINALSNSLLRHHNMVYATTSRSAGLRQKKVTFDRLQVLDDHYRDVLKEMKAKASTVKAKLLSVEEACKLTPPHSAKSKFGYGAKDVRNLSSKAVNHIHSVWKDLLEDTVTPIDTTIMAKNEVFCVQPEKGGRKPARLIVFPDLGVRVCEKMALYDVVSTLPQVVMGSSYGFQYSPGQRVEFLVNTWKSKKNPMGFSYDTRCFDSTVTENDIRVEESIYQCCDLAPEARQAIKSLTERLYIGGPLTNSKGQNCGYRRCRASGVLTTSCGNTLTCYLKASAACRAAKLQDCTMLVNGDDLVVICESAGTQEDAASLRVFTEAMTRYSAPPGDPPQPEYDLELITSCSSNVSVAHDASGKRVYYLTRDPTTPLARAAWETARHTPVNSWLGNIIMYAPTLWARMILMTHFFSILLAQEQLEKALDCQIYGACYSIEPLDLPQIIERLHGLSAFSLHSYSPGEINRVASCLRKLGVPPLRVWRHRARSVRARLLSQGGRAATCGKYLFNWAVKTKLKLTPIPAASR

Regarding `COCC1CCCN(CCN2CCn3c(c(C4CCCCC4)c4ccc(C(=O)O)cc43)-c3ccc(C(C)C)cc32)C1` (stereo not drawn) [Example 1-367, 13-cyclohexyl-3-isopropyl-5-[2-(3-methoxymethylpiperidin-1-yl)ethyl]-6,7-dihydro-5H-benzo[5,6][1,4]diazepino[7,1-a]indole-10-carboxylic acid dihydrochloride], the IC50 was under 100 nM. `COCC(=O)N1CCn2c(c(C3CCCCC3)c3ccc(C(=O)O)cc32)-c2ccc(OC)cc2C1` [Example 11-7, 14-cyclohexyl-3-methoxy-6-(2-methoxyacetyl)-5,6,7,8-tetrahydrobenzo[6,7][1,4]diazocino[8,1-a]indole-11-carboxylic acid] registered an IC50 of under 100 nM.

As to `CC(C)(NC(=O)c1ccc2c(C3CCCCC3)c3n(c2c1)CCOc1ccccc1-3)c1nc(C(=O)O)cs1` [Example 2-167, 2-{1-[(12-cyclohexyl-6,7-dihydro-5-oxa-7a-azadibenzo[a,e]azulene-9-carbonyl)amino]-1-methylethyl}thiazole-4-carboxylic acid], the IC50 is under 100 nM. As for `CCC1COCCN1CCN1CCn2c(c(C3CCCCC3)c3ccc(C(=O)O)cc32)-c2ccccc21` (stereo not drawn) [Example 1-257, 13-cyclohexyl-5-[2-(3-ethylmorpholin-4-yl)ethyl]-6,7-dihydro-5H-benzo[5,6][1,4]diazepino[7,1-a]indole-10-carboxylic acid dihydrochloride], the IC50 was under 100 nM.

With `CC(C)[C@@H](COc1ccc2c(c1)OCCn1c-2c(C2CCCCC2)c2ccc(C(=O)O)cc21)NC(=O)OC(C)(C)C` [Example 2-43, 3-((S)-2-tert-butoxycarbonylamino-3-methylbutoxy)-12-cyclohexyl-6,7-dihydro-5-oxa-7a-azadibenzo[a,e]azulene-9-carboxylic acid], the IC50 was under 100 nM.

In turn, `CCCN1CCCC(CCN2CCn3c(c(C4CCCCC4)c4ccc(C(=O)O)cc43)-c3ccc(C)cc32)C1` (stereo not drawn) [Example 1-410, 13-cyclohexyl-3-methyl-5-[2-(1-propylpiperidin-3-yl)ethyl]-6,7-dihydro-5H-benzo[5,6][1,4]diazepino[7,1-a]indole-10-carboxylic acid dihydrochloride] had an IC50 of under 100 nM.

In turn, `CCOCC1CCCN(CCN2CCn3c(c(C4CCCCC4)c4ccc(C(=O)O)cc43)-c3ccc(Cl)cc32)C1` (stereo not drawn) [Example 1-391, 3-chloro-13-cyclohexyl-5-[2-(3-ethoxymethylpiperidin-1-yl)ethyl]-6,7-dihydro-5H-benzo[5,6][1,4]diazepino[7,1-a]indole-10-carboxylic acid dihydrochloride] gave an IC50 of under 100 nM. `COCCN(C)C(=O)CN1CCn2c(c(C3CCCCC3)c3ccc(C(=O)O)cc32)-c2ccccc21` [Example 1-37, 13-cyclohexyl-5-{[N-(2-methoxyethyl)-N-methylcarbamoyl]methyl}-6,7-dihydro-5H-benzo[5,6][1,4]diazepino[7,1-a]indole-10-carboxylic acid monohydrochloride] came in with an IC50 of under 100 nM.

As for `CCC1CCCN(C(=O)CN2CCn3c(c(C4CCCCC4)c4ccc(C(=O)O)cc43)-c3ccccc32)C1` (stereo not drawn) [Example 1-188, 13-cyclohexyl-5-[2-(3-ethylpiperidin-1-yl)-2-oxoethyl]-6,7-dihydro-5H-benzo[5,6][1,4]diazepino[7,1-a]indole-10-carboxylic acid monohydrochloride], the IC50 is under 100 nM. For `CC1CCCN(CCN2CCn3c(c(C4CCCCC4)c4ccc(C(=O)O)cc43)-c3ccc(F)cc32)C1` (stereo not drawn) [Example 1-254, 13-cyclohexyl-3-fluoro-5-[2-(3-methylpiperidin-1-yl)ethyl]-6,7-dihydro-5H-benzo[5,6][1,4]diazepino[7,1-a]indole-10-carboxylic acid dihydrochloride], the IC50 was under 100 nM. For the compound `CCN(CC)CCCN1CCn2c(c(C3CCCCC3)c3ccc(C(=O)O)cc32)-c2ccc(Cl)cc21` [Example 1-302, 3-chloro-13-cyclohexyl-5-(3-diethylaminopropyl)-6,7-dihydro-5H-benzo[5,6][1,4]diazepino[7,1-a]indole-10-carboxylic acid dihydrochloride], the IC50 is under 100 nM. Same read-out and setting: the result for `O=C(O)c1ccc2c(C3CCCCC3)c3n(c2c1)CCN(CC(=O)N1CCCCC1)c1cc(Cl)ccc1-3` [Example 1-77, 3-chloro-13-cyclohexyl-5-[2-oxo-2-(piperidin-1-yl)ethyl]-6,7-dihydro-5H-benzo[5,6][1,4]diazepino[7,1-a]indole-10-carboxylic acid monohydrochloride] reads under 100 nM; that for `CC(C)(Cc1ccc(O)cc1)NC(=O)c1ccc2c(C3CCCCC3)c3n(c2c1)CCOc1ccccc1-3` [Example 2-220, N-[2-(4-hydroxyphenyl)-1,1-dimethylethyl]-12-cyclohexyl-6,7-dihydro-5-oxa-7a-azadibenzo[a,e]azulene-9-carboxamide], 100 to 1000 nM. `O=C(O)c1ccc2c(C3CCCCC3)c3n(c2c1)CCN(CCN1CCC(F)(F)CC1)c1ccccc1-3` [Example 1-174, 13-cyclohexyl-5-[2-(4,4-difluoropiperidin-1-yl)ethyl]-6,7-dihydro-5H-benzo[5,6][1,4]diazepino[7,1-a]indole-10-carboxylic acid dihydrochloride] came in with an IC50 of under 100 nM. Same read-out and setting: the result for `CC(C)(C)OC(=O)N1CCC[C@H]1COc1ccc2c(c1)OCCn1c-2c(C2CCCCC2)c2ccc(C(=O)O)cc21` [Example 2-35, 3-[(S)-1-(tert-butoxycarbonyl)pyrrolidin-2-ylmethoxy]-12-cyclohexyl-6,7-dihydro-5-oxa-7a-azadibenzo[a,e]azulene-9-carboxylic acid] reads under 100 nM.

The compound `Cc1ccc2c(c1)N(CCN1CCCC1)CCn1c-2c(C2CCCCC2)c2ccc(C(=O)O)cc21` [Example 1-260, 13-cyclohexyl-3-methyl-5-[2-(pyrrolidin-1-yl)ethyl]-6,7-dihydro-5H-benzo[5,6][1,4]diazepino[7,1-a]indole-10-carboxylic acid dihydrochloride] had an IC50 of under 100 nM.

The compound `O=C(O)c1ccc2c(C3CCCCC3)c3n(c2c1)CCOc1c(-c2ccccc2CCC(=O)N2CCCCC2)cccc1-3` [Example 2-535, 12-cyclohexyl-4-{2-[3-oxo-3-(piperidin-1-yl)propyl]phenyl}-6,7-dihydro-5-oxa-7a-azadibenzo[a,e]azulene-9-carboxylic acid] had an IC50 of under 100 nM. For `O=C(O)c1ccc2c(C3CCCCC3)c3n(c2c1)CCN(CCCN1CCCCC1)c1cc(Cl)ccc1-3` [Example 1-242, 3-chloro-13-cyclohexyl-5-[3-(piperidin-1-yl)propyl]-6,7-dihydro-5H-benzo[5,6][1,4]diazepino[7,1-a]indole-10-carboxylic acid dihydrochloride], the IC50 was under 100 nM. Same read-out and setting: the result for `Cc1ccc2c(c1)N(CCC1CCCN(C(C)C)C1)CCn1c-2c(C2CCCCC2)c2ccc(C(=O)O)cc21` (stereo not drawn) [Example 1-275, 13-cyclohexyl-5-[2-(1-isopropylpiperidin-3-yl)ethyl]-3-methyl-6,7-dihydro-5H-benzo[5,6][1,4]diazepino[7,1-a]indole-10-carboxylic acid dihydrochloride] reads under 100 nM. Turning to `O=C(O)c1ccc2c(C3CCCCC3)c3n(c2c1)CCN(CCN1CCCCC1)c1cc(C(F)(F)F)ccc1-3` [Example 1-159, 13-cyclohexyl-5-[2-(piperidin-1-yl)ethyl]-3-trifluoromethyl-6,7-dihydro-5H-benzo[5,6][1,4]diazepino[7,1-a]indole-10-carboxylic acid dihydrochloride], the IC50 was under 100 nM. For `COC(=O)C(Cc1c[nH]c2ccc(O)cc12)NC(=O)c1ccc2c(C3CCCCC3)c3n(c2c1)CCOc1ccccc1-3` (stereo not drawn) [Example 2-210], under “read-out: HCV polymerase inhibitory activity IC50, 25° C., 90 min, [5,6-3H]UTP incorporation into RNA”, the IC50 is under 100 nM. Consider `Cc1ccc2c(c1)NCCn1c-2c(C2CCCCC2)c2ccc(S(N)(=O)=O)cc21` [Example 1-506, 13-cyclohexyl-3-methyl-6,7-dihydro-5H-benzo[5,6][1,4]diazepino[7,1-a]indole-10-sulfonamide], for which the IC50 was in the range of 100 to 1000 nM.

`O=C(O)c1ccc2c(C3CCCCC3)c3n(c2c1)CCN(CCCC(=O)N1CCOCC1)c1ccccc1-3` [Example 1-61, 13-cyclohexyl-5-[4-(morpholin-4-yl)-4-oxobutyl]-6,7-dihydro-5H-benzo[5,6][1,4]diazepino[7,1-a]indole-10-carboxylic acid monohydrochloride] gave an IC50 of under 100 nM. For `O=C(O)c1ccc2c(C3CCCCC3)c3n(c2c1)CCN(CCN1CCOCC1)c1cc(Cl)ccc1-3` [Example 1-79, 3-chloro-13-cyclohexyl-5-[2-(morpholin-4-yl)ethyl]-6,7-dihydro-5H-benzo[5,6][1,4]diazepino[7,1-a]indole-10-carboxylic acid dihydrochloride], the concentration for half-maximal inhibition (IC50) (25° C., 90 min, [5,6-3H]UTP incorporation into RNA, read-out: HCV polymerase inhibitory activity IC50) was under 100 nM. In turn, `CC(=O)N1CCN(C(=O)C(C)(C)NC(=O)c2ccc3c(C4CCCCC4)c4n(c3c2)CCOc2ccccc2-4)CC1` [Example 2-303, N-[2-(4-acetylpiperazin-1-yl)-1,1-dimethyl-2-oxoethyl]-12-cyclohexyl-6,7-dihydro-5-oxa-7a-azadibenzo[a,e]azulene-9-carboxamide] showed an IC50 of under 100 nM. In the case of `CC(C)(CN1CCC(O)CC1)NC(=O)c1ccc2c(C3CCCCC3)c3n(c2c1)CCOc1ccccc1-3` [Example 2-234, N-[2-(4-hydroxypiperidin-1-yl)-1,1-dimethylethyl]-12-cyclohexyl-6,7-dihydro-5-oxa-7a-azadibenzo[a,e]azulene-9-carboxamide], the IC50 is 100 to 1000 nM. Compound `CN1CCn2c(c(C3CCCCC3)c3ccc(C(=O)O)cc32)-c2cccc(OCCN3CCCCC3)c21` [Example 1-552, 13-cyclohexyl-5-methyl-4-[2-(piperidin-1-yl)ethoxy]-6,7-dihydro-5H-benzo[5,6][1,4]diazepino[7,1-a]indole-10-carboxylic acid dihydrochloride] yielded an IC50 of under 100 nM.
